Results reported in US9707203B1, “Methods of killing bacteria and preventing or treating bacterial infection with oxidation products of safranal and methods of synthesizing safranal epoxides” (King Abdulaziz University, priority 2016, dated 2017).

Tested on: methicillin resistant Staphylococcus aureus (MRSA)
Test: Agar well diffusion method, antibacterial activity on Mueller Hinton media
Assay type: cell-based
Conditions: for Inhibition zone diameter: bacterial lawn of Staphylococcus aureus grown on Mueller Hinton media, agar well diffusion
Description: The antibacterial activities of safranal, a mixture of compound 2 and compound 3 obtained by the thermal epoxidation of safranal according to scheme 1, and a mixture of compound 2 and compound 3 obtained by the photochemical epoxidation of safranal according to scheme 2 against methicillin resistant Staphylococcus aureus (MRSA) were determined by the agar well diffusion method described by Collins, C. H., P. M. Lyne, J. M. Grange, Microbial Methods., 6th Edition, Butterworhs Co. Ltd, London; 1989. p. 410, incorporated herein by reference in its entirety.
Table 1: Antibacterial Activity (Inhibition Zone Diameter) of the Mixture of Compound 2 and Compound 3 Obtained by the Thermal Epoxidation of Safranal or by the Photochemical Epoxidation of Safranal, and Safranal Against Staphylococcus aureus Grown on Mueller Hinton Media Using Agar Well Diffusion Method

CC1=C(C=O)C(C)(C)CC=C1 [Safranal, 2,6,6-trimethylcyclohexa-1,3-diene-1-carbaldehyde]
Inhibition zone in the bacterial lawn (presence/absence) (Staphylococcus aureus on Mueller Hinton media in a petri dish, agar well containing test substance, FIG. 3B-3D): presence of an inhibition zone
Inhibition zone diameter: 27.00 mm
Inhibition zone diameter (listed as safranal): 27 mm
